Measured values as given in patent publication US20110318393A1, “Substituted Pyrazole Compounds” (MIIKANA THERAPEUTICS, INC., priority 2008, published 2011).

Experiments:
Format in all cases: biochemical
Conditions in all cases: 40 minutes, room temperature; less than or equal to 100 nM
[1] = target: T1, N-terminal GST-tagged recombinant human Flt3, residues 564-end (Homo sapiens, UniProt P36888); assay: Flt3 kinase inhibition assay (33P-ATP filter assay)
T1 construct: recombinant human Flt3, residues 564-end; GST (N); purchased Upstate USA Inc, Charlottesville, Va
T1 sequence (P36888 564-993 limits assumed): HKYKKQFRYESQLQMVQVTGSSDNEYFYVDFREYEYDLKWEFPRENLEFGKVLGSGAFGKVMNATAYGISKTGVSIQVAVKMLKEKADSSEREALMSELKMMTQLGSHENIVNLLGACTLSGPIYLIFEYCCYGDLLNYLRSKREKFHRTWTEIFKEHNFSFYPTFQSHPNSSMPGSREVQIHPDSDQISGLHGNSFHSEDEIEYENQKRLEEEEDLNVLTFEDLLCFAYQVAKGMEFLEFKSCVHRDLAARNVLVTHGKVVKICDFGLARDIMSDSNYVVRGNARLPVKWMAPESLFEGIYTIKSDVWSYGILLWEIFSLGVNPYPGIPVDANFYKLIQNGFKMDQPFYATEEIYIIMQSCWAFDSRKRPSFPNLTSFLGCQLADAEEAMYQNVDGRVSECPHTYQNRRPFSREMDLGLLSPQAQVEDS
Procedure: (§1) Compounds were assayed for Flt3 kinase inhibitory activity using N-terminal GST-tagged recombinant human Flt3, residues 564-end (Upstate USA Inc, 706 Forest Street, Charlottesville, Va.). Serial dilutions of compound were assayed in a final reaction volume of 25 μL by incubating a solution of the above Flt3 kinase (5-10 mU), 8 mM MOPS (3-(N-morpholino)propanesulfonic acid) pH 7.0, 0.2 mM EDTA (ethylenediamine tetracetic acid), 50 μM amino acid sequence EAIYAAPFAKKK (Upstate USA Inc, 706 Forest Street, Charlottesville, Va.), and 10 mM magnesium acetate and [γ-^33P-ATP] (specific activity of about 500 cpm/pmol, concentration as required). The reaction was initiated by the addition of the magnesium acetate and [γ-^33P-ATP] mixture. After incubation for 40 minutes at room temperature, the reaction was stopped by the addition of 5 μL of a 3% phosphoric acid solution. A 10 μL aliquote of the reaction was then spotted onto a P30 filtermat (PerkinElmer, Wellesley, Mass.) and washed three times for five minutes in 75 mM phosphoric acid and once in methanol prior to drying and scintillation counting. Inhibition of Flt3 activity was determined by comparison to assays that contained no inhibitor.

[2] = target: T2, N-terminal His6-tagged recombinant human KDR, residues 790-end (Homo sapiens, UniProt P35968); assay: KDR kinase inhibition assay (33P-ATP filter assay)
T2 construct: recombinant human KDR, residues 790-end; His6 (N); purchased Upstate USA Inc, Charlottesville, Va
Procedure: as §1, with “KDR” for “Flt3”, “His6-tagged” for “GST-tagged”, “KDR,” for “Flt3,”, “790-end” for “564-end”, “0.33 mg/mL myelin basic protein” for “50 μM amino acid sequence EAIYAAPFAKKK”

[3] = target: T3, N-terminal His-tagged human Src (Homo sapiens, UniProt P12931); assay: Src kinase inhibition assay (33P-ATP filter assay)
T3 construct: His (N); purchased Upstate USA Inc, Charlottesville, Va
Procedure: Compounds were assayed for Src kinase inhibitory activity using N-terminal His-tagged human Src (Upstate USA Inc, 706 Forest Street, Charlottesville, Va.). Serial dilutions of compound were assayed in a final reaction volume of 25 μL by incubating a solution of the above Src kinase (5-10 mU), 8 mM MOPS (3-(N-morpholino)propanesulfonic acid) pH 7.0, 0.2 mM EDTA (ethylenediamine tetracetic acid), 250 μM amino acid sequence KVEKIGEGTYGVVYK (Upstate USA Inc, 706 Forest Street, Charlottesville, Va.), and 10 mM magnesium acetate and [γ-^33P-ATP] (specific activity of about 500 cpm/pmol, concentration as required). The reaction was initiated by the addition of the magnesium acetate and [γ-^33P-ATP] mixture. After incubation for 40 minutes at room temperature, the reaction was stopped by the addition of 5 μL of a 3% phosphoric acid solution. A 10 μL aliquote of the reaction was then spotted onto a P30 filtermat (PerkinElmer, Wellesley, Mass.) and washed three times for five minutes in 75 mM phosphoric acid and once in methanol prior to drying and scintillation counting. Inhibition of Src activity was determined by comparison to assays that contained no inhibitor.

T2 sequence (P35968 790-1356 limits assumed): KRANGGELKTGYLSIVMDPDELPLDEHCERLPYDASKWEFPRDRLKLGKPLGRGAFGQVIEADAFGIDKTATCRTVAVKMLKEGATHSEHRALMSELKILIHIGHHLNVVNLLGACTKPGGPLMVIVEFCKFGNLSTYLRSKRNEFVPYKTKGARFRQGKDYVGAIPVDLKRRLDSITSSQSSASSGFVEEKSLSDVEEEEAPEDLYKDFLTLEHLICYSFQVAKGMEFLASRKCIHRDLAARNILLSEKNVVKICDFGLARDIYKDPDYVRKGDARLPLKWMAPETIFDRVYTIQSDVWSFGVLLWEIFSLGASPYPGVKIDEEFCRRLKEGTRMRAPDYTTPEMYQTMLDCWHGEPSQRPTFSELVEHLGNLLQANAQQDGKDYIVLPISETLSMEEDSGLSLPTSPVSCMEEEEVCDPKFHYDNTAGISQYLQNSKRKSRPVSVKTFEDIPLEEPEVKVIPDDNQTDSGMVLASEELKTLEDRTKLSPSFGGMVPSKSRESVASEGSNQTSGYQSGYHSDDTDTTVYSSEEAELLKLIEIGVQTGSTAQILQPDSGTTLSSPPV
T3 sequence (P12931 whole entry): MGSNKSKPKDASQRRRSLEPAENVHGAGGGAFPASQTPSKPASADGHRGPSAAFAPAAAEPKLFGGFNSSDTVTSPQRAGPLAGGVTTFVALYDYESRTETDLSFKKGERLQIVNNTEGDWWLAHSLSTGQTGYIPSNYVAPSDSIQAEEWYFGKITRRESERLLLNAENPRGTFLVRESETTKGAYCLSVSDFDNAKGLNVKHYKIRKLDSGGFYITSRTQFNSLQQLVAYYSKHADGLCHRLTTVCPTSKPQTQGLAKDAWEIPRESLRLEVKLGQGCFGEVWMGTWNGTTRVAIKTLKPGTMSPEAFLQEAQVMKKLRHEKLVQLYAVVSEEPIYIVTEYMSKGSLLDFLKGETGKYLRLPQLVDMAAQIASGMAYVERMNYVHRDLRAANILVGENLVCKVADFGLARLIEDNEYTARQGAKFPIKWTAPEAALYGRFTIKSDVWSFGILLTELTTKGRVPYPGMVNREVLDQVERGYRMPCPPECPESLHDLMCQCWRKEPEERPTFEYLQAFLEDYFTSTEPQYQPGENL

IC50 [1] [nM] | IC50 [2] [nM] | IC50 [3] [nM] | Compound
≤ 100 | ≤ 100 | ≤ 100 | Cc1cc(Nc2cc(N3CCC(N4CCCCC4)CC3)nc(/C=C/c3ccccc3)n2)n[nH]1 [Compound 5, (E)-6-(1,4′-bipiperidin-1′-yl)-N-(5-methyl-1H-pyrazol-3-yl)-2-styrylpyrimidin-4-amine]
≤ 100 | ≤ 100 | ≤ 100 | Cc1cc(Nc2cc(N3CCN(c4ccncc4)CC3)nc(/C=C/c3ccccc3)n2)n[nH]1 [Compound 22, (E)-N-(5-methyl-1H-pyrazol-3-yl)-6-(4-(pyridin-4-yl)piperazin-1-yl)-2-styrylpyrimidin-4-amine]
